Source: ChEMBL document CHEMBL4316588, “Design, Synthesis, and Biological Evaluation of Novel DNA Gyrase-Inhibiting Spiropyrimidinetriones as Potent Antibiotics for Treatment of Infections Caused by Multidrug-Resistant Gram-Positive Bacteria” (J Med Chem, 2019)
Values after ≈ are worked out from the molar mass of the structure shown. Active and inactive are the calls of the source. The rule behind the calls is not given here.

Tests used:
Format in all cases: functional
Staphylococcus aureus [1] = test: Antibacterial activity against methicillin-resistant Staphylococcus aureus after 18 to 20 hrs by CLSI-protocol based broth microdilution method
Streptococcus pyogenes = test: Antibacterial activity against Streptococcus pyogenes after 18 to 20 hrs by CLSI-protocol based broth microdilution method
Streptococcus pneumoniae = test: Antibacterial activity against penicillin-resistant Streptococcus pneumoniae after 18 to 20 hrs by CLSI-protocol based broth microdilution method
Staphylococcus aureus [2] = test: Antibacterial activity against methicillin-sensitive Staphylococcus aureus after 18 to 20 hrs by CLSI-protocol based broth microdilution method
[3] = test system: Staphylococcus epidermidis; test: Antibacterial activity against methicillin-resistant Staphylococcus epidermidis after 18 to 20 hrs by CLSI-protocol based broth microdilution method
[4] = test system: Staphylococcus epidermidis; test: Antibacterial activity against methicillin-sensitive Staphylococcus epidermidis after 18 to 20 hrs by CLSI-protocol based broth microdilution method
[5] = Streptococcus pyogenes, read-out: MIC
[6] = Staphylococcus aureus, read-out: MIC

Row | SMILES | MIC (Staphylococcus aureus [1]) | MIC (Streptococcus pyogenes; [5]) [µg/mL] | MIC (Streptococcus pneumoniae) | MIC (Staphylococcus aureus [2]; [6]) [µg/mL] | MIC [3] | MIC [4] | MIC (Streptococcus pyogenes) | MIC (Staphylococcus aureus [2])
1 | C[C@@H]1CN2c3c(cc4c(N5C(=O)OCC56CC6)noc4c3F)CC3(C(=O)NC(=O)NC3=O)[C@H]2[C@H](C)O1 (racemic) | 1 to 4 µg/mL (≈ 2 to 8.01 µM) | 1 to 2 (≈ 2 to 4 µM) | 2 µg/mL (≈ 4 µM) | 1 (≈ 2 µM) | 0.5 to 2 µg/mL (≈ 1 to 4 µM) | 1 to 2 µg/mL (≈ 2 to 4 µM) | – | –
2 | C[C@@H]1CN2c3c(cc4c(N5CCCOC5=O)noc4c3F)CC3(C(=O)NC(=O)NC3=O)[C@H]2[C@H](C)O1 (racemic) | 1 to 64 µg/mL (≈ 2.05 to 131 µM) | 4 (≈ 8.21 µM) | 4 to 8 µg/mL (≈ 8.21 to 16.4 µM) | 4 to 8 (≈ 8.21 to 16.4 µM) | 1 to 8 µg/mL (≈ 2.05 to 16.4 µM) | 4 µg/mL (≈ 8.21 µM) | – | –
3 | C[C@@H]1CN2c3c(cc4c(N5C(=O)SCC56CC6)noc4c3F)CC3(C(=O)NC(=O)NC3=O)[C@H]2[C@H](C)O1 | 0.5 to 8 µg/mL (≈ 0.97 to 15.5 µM) | 4 (≈ 7.76 µM) | 1 to 2 µg/mL (≈ 1.94 to 3.88 µM) | 2 to 4 (≈ 3.88 to 7.76 µM) | 2 to 4 µg/mL (≈ 3.88 to 7.76 µM) | 1 to 4 µg/mL (≈ 1.94 to 7.76 µM) | – | –
4 | C[C@@H]1CN2c3c(cc4c(N5C(=O)OC[C@@H]5C)noc4c3F)CC3(C(=O)N(C)C(=O)N(C)C3=O)[C@H]2[C@H](C)O1 | inactive | – | inactive | – | inactive | inactive | inactive | inactive
5 | C[C@@H]1CN2c3c(cc4c(N5C[C@H](CF)SC5=O)noc4c3F)CC3(C(=O)NC(=O)NC3=O)[C@H]2[C@H](C)O1 | – | – | 0.06 to 0.25 µg/mL (≈ 0.115 to 0.479 µM) | 0.06 to 0.125 (≈ 0.115 to 0.24 µM) | – | < 0.03 µg/mL | – | –
6 | C[C@@H]1CN2c3c(cc4c(N5CCOC5=S)noc4c3F)CC3(C(=O)NC(=O)NC3=O)[C@H]2[C@H](C)O1 (racemic) | 1 to 2 µg/mL (≈ 2.04 to 4.09 µM) | 2 (≈ 4.09 µM) | 1 to 2 µg/mL (≈ 2.04 to 4.09 µM) | 0.5 to 1 (≈ 1.02 to 2.04 µM) | 1 µg/mL (≈ 2.04 µM) | 0.5 to 2 µg/mL (≈ 1.02 to 4.09 µM) | – | –
7 | C[C@@H]1CN2c3c(cc4c(N5CC6(COC6)OC5=O)noc4c3F)CC3(C(=O)NC(=O)NC3=O)[C@H]2[C@H](C)O1 | 0.03 to 1 µg/mL (≈ 0.0582 to 1.94 µM) | 0.125 to 0.25 (≈ 0.243 to 0.485 µM) | 0.125 to 0.5 µg/mL (≈ 0.243 to 0.97 µM) | 0.125 to 0.25 (≈ 0.243 to 0.485 µM) | 0.03 to 0.25 µg/mL (≈ 0.0582 to 0.485 µM) | 0.03 to 0.125 µg/mL (≈ 0.0582 to 0.243 µM) | – | –
8 | C[C@@H]1CN2c3c(cc4c(N5C[C@H](COC(F)(F)F)SC5=O)noc4c3F)CC3(C(=O)NC(=O)NC3=O)[C@H]2[C@H](C)O1 | – | 0.125 to 0.25 (≈ 0.213 to 0.426 µM) | 0.125 to 0.5 µg/mL (≈ 0.213 to 0.851 µM) | 0.06 to 1 (≈ 0.102 to 1.7 µM) | – | – | – | –
9 | C[C@@H]1CN2c3c(cc4c(N5CC6(CC6)OC5=O)noc4c3C#N)CC3(C(=O)NC(=O)NC3=O)[C@H]2[C@H](C)O1 | 0.03 to 8 µg/mL (≈ 0.0592 to 15.8 µM) | 4 (≈ 7.9 µM) | 1 to 2 µg/mL (≈ 1.97 to 3.95 µM) | 1 to 4 (≈ 1.97 to 7.9 µM) | 0.5 to 2 µg/mL (≈ 0.987 to 3.95 µM) | 0.25 to 2 µg/mL (≈ 0.494 to 3.95 µM) | – | –
10 | C[C@@H]1CN2c3c(cc4c(N5CCSCC5)ncnc4c3F)CC3(C(=O)NC(=O)NC3=O)[C@H]2[C@H](C)O1 (racemic) | inactive | – | inactive | – | inactive | inactive | inactive | inactive
11 | C[C@@H]1CN2c3c(cc4c(N5C(=O)OC[C@@H]5C)noc4c3F)CC3(C(=O)NS(=O)(=O)NC3=O)[C@H]2[C@H](C)O1 | inactive | – | inactive | – | inactive | inactive | inactive | inactive
12 | CC[C@H]1CSC(=O)N1c1noc2c(F)c3c(cc12)CC1(C(=O)NC(=O)NC1=O)[C@H]1[C@H](C)O[C@H](C)CN31 | 0.5 to 1 µg/mL (≈ 0.966 to 1.93 µM) | 0.5 to 1 (≈ 0.966 to 1.93 µM) | 0.5 to 1 µg/mL (≈ 0.966 to 1.93 µM) | 0.25 to 0.5 (≈ 0.483 to 0.966 µM) | 0.25 to 0.5 µg/mL (≈ 0.483 to 0.966 µM) | 0.5 to 1 µg/mL (≈ 0.966 to 1.93 µM) | – | –
13 | C[C@@H]1CN(c2noc3c(C#N)c4c(cc23)CC2(C(=O)NC(=O)NC2=O)[C@H]2[C@H](C)O[C@H](C)CN42)C(=O)O1 | 0.25 to 8 µg/mL (≈ 0.506 to 16.2 µM) | 4 to 8 (≈ 8.09 to 16.2 µM) | 4 to 8 µg/mL (≈ 8.09 to 16.2 µM) | 2 to 8 (≈ 4.04 to 16.2 µM) | 2 µg/mL (≈ 4.04 µM) | 1 to 2 µg/mL (≈ 2.02 to 4.04 µM) | – | –
14 | CC(=O)NC[C@H]1CN(c2noc3c(F)c4c(cc23)CC2(C(=O)NC(=O)NC2=O)[C@H]2[C@H](C)O[C@H](C)CN42)C(=O)S1 | 16 to 64 µg/mL (≈ 28.5 to 114 µM) | 16 to 32 (≈ 28.5 to 57.1 µM) | 2 µg/mL (≈ 3.57 µM) | 16 (≈ 28.5 µM) | 0.5 to 2 µg/mL (≈ 0.892 to 3.57 µM) | 2 to 8 µg/mL (≈ 3.57 to 14.3 µM) | – | –
15 | C[C@@H]1CN2c3c(cc4c(N5C(=O)S[C@@H]6CCC[C@@H]65)noc4c3F)CC3(C(=O)NC(=O)NC3=O)[C@H]2[C@H](C)O1 | – | < 0.03 | < 0.03 µg/mL | – | – | < 0.03 µg/mL | – | –
16 | C[C@@H]1CN2c3c(cc4c(N5C(=O)S[C@H]6CCC[C@H]65)noc4c3F)CC3(C(=O)NC(=O)NC3=O)[C@H]2[C@H](C)O1 | 0.25 to 1 µg/mL (≈ 0.472 to 1.89 µM) | 0.125 (≈ 0.236 µM) | 0.25 to 0.5 µg/mL (≈ 0.472 to 0.944 µM) | 0.25 to 0.5 (≈ 0.472 to 0.944 µM) | 0.5 µg/mL (≈ 0.944 µM) | 0.5 µg/mL (≈ 0.944 µM) | – | –
17 | C[C@@H]1CN2c3c(cc4c(N5CCOC5=O)ncnc4c3F)CC3(C(=O)NC(=O)NC3=O)[C@H]2[C@H](C)O1 (relative stereo) | inactive | – | inactive | – | inactive | inactive | inactive | inactive
18 | C[C@@H]1CN2c3c(cc4c(N5C[C@H](C)SC5=O)noc4c3C#N)CC3(C(=O)NC(=O)NC3=O)[C@H]2[C@H](C)O1 | – | 0.125 to 0.5 (≈ 0.245 to 0.979 µM) | 0.125 to 0.25 µg/mL (≈ 0.245 to 0.49 µM) | 0.06 to 1 (≈ 0.118 to 1.96 µM) | 0.06 to 0.5 µg/mL (≈ 0.118 to 0.979 µM) | 0.06 to 0.125 µg/mL (≈ 0.118 to 0.245 µM) | – | –
